Source: US12226386B2, “Compositions and methods for treating biofilms” (The Regents of the University of California, priority 2018, dated 2025)
Where two headings read alike, the source gives them in different places.

Assays:
[1] = tested on: S. aureus (MRSA) biofilms; test: in vitro biofilm disruption assay, bacterial; format: cell-based; conditions: Staphylococcus aureus, 24 h
Protocol: (§1) In vitro biofilm formation was tested using two assays, sustained inhibition and disruption. Both assays assess biofilm formed on polystyrene plates. The first, tests the effects of amino acid solution on a developing biofilm, while the latter tests the effects of the solution on a pre-formed mature biofilm, both compared to media without supplemented amino acids.
(§2) Other amino acids in the blood of animals could combat bacterial and fungal biofilm and therefore may be useful in treating these bacterial and fungal infections that would lie on the external surfaces of infected animals such as humans and could also be used to combat these pathogens on instruments and surfaces that need to be treated. Two types of biofilm assays were performed: a sustained inhibition assay and a disruption assay. The sustained inhibition assay assessed the compound's ability to prevent biofilm development throughout all stages of biofilm formation, while the disruption assay assessed the compound's ability to break up an existing mature biofilm.
(§3) For fungal biofilm assays, all solutions were prepared in RPMI 1640 medium. All bacterial biofilm solutions were prepared in Tryptic Soy Broth (TSB), supplemented with 1% glucose (henceforth referred to as TSB-G). All subsequent procedures were performed in a manner that maintained sterility. A solution of each amino acid to be tested was prepared in weight to volume concentrations ranging from 0.1-5.0%. Amino acids were also tested in combinations. Compound solutions were homogenized with gentle agitation in the dark (4° C., 24 hours) before use.
(§4) Bacterial strains were streaked on Blood Agar plates (5% sheep blood in Tryptic Soy Agar) and incubated at 37° C. for 24 hours. A single colony from each strain to be tested was inoculated in a TSB broth and grown for 12 hours, at 37° C. shaking at 225 rpm. For the bacterial biofilm inhibition assays, 1 μL of saturated overnight cell culture was added to either 80 μL of TSB-G, or TSB-G supplemented with the amino acid compound solution to be tested, in a 384-well plate. The cells were allowed to adhere to the plate for 60 minutes at 37° C. without shaking. The media was carefully aspirated and 80 μL of TSB-G, or TSB-G supplemented with the amino acid compound solution was added to the plate. The plate was further incubated for 24 hours at 37° C. without shaking. Media was carefully aspirated and the biofilm was measured by optical density at 600 nm. Eight or twelve replicates were performed for each tested condition and the reported values are normalized to the control (TSB-G media only). For the bacterial biofilm disruption assays, 80 μL of TSB-G was added to the plate, along with 1 μL of overnight cell culture. The cells were allowed to adhere to the plate for 60 minutes at 37° C. with no shaking. The media was carefully aspirated and 80 μL of TSB-G was added to the plate. The plate was further incubated for 24 hours at 37° C. with no shaking. Media was carefully aspirated from the mature biofilm and 80 μL of TSB-G, or TSB-G supplemented with the amino acid to be tested, was gently added to the plate. The plate was further incubated for 24 hours at 37° C. without shaking. Media was aspirated and the biofilm was measured by optical density at 600 nm. Twelve replicates were performed for each tested condition and the reported values are normalized to the control (TSB-G media only).
For disruption assay, 80 μl of TSB-G was added to the plate, along with 1 μl of overnight cell culture. The cells were allowed to adhere to the plate for 60 minutes at 37° C. with no shaking. The media was carefully aspirated and 80 μl of TSB-G was added to the plate. The plate was further incubated for 24 hours at 37° C. with no shaking. Media was carefully aspirated from the mature biofilm and 80 μl of TSB-G, or TSB-G supplemented with the amino acid to be tested, was added drop wise to the plate. The plate was further incubated for 24 hours at 37° C. with no shaking. […]

[2] = tested on: S. aureus (MRSA) biofilms; test: in vitro sustained inhibition biofilm assay, bacterial; format: cell-based, Staphylococcus aureus; conditions: for activation at 1 %: Staphylococcus aureus, MRSA, 24 h, read-out: Promote B Biofilm
Protocol: as §1, §2, §3, §4
For inhibition assay, 1 μl of overnight cell culture was added to either 80 μl of TSB-G, or TSB-G supplemented with the amino acid to be tested, in a 384-well plate. The cells were allowed to adhere to the plate for 60 minutes at 37° C. with no shaking. The media was carefully aspirated and 80 μl of TSB-G, or TSB-G supplemented with amino acid was added to the plate. The plate was further incubated for 24 hours at 37° C. with no shaking. Media was carefully aspirated and the biofilm was measured by optical density at 600 nm. […]

[3] = tested on: bacterial biofilms (MRSA); test: biofilm assays (sustained inhibition and/or disruption), bacterial; format: cell-based, Staphylococcus aureus; conditions: for effect on MRSA biofilms in inhibition and disruption assays: Tables 4 and 5; for anti-biofilm properties against bacterial biofilms: administered individually at about 0.1 to about 5.0% weight to volume; for anti-biofilm properties against bacterial biofilms / effect on bacterial biofilm growth: in at least one of the two biofilm assays
Protocol: as §2, §3, §4

[4] = disruption, S. aureus, 1% amino acid, p<0.001, read-out: Reduce B Biofilm
[5] = sustained inhibition, S. aureus, 1% amino acid, p<0.001
[6] = disruption, S. aureus, 1% amino acid, p<0.001, read-out: Promote B Biofilm

Row | SMILES | activation at 1 % [1, 6] | effect on bacterial biofilm growth [3] | activation at 1 % [2, 5] | also measured
1 | NC(CCCC(=O)O)C(=O)O (stereo not shown) [2 Aminoadipic Acid, 2-aminoadipic acid] | – | – | – | inhibition at 1 % [1, 4]: 10 to 30%; Reduce B Biofilm [2, 5]: ● (a single dot [i.e. ●] signifies minor effect (from about 10 to about 30% change)); effect on MRSA biofilms in inhibition and disruption assays [3]: both inhibited and disrupted; anti-biofilm properties against bacterial biofilms [3]: reduction by less than twofold
2 | C[C@H](N)C(=O)O [Alanine, L-alanine] | 10 to 30% | support (improve) bacterial biofilm growth | – | –
3 | N=C(N)NCCC[C@H](N)C(=O)O [Arginine, L-arginine] | – | support (improve) bacterial biofilm growth | – | activation at 1 % ([1]; read-out: Promote B Biofilm): 10 to 30%; activation at 1 % [2]: 10 to 30%
4 | NC(=O)C[C@H](N)C(=O)O [Asparagine, L-asparagine] | – | support (improve) bacterial biofilm growth | 10 to 30% | –
5 | NCCC(=O)O [Beta-Alanine, Beta-alanine] | – | – | – | Reduce B Biofilm [2, 5]: ● (a single dot [i.e. ●] signifies minor effect (from about 10 to about 30% change)); anti-biofilm properties against bacterial biofilms [3]: reduction by less than twofold
6 | NC(=O)NCCC[C@H](N)C(=O)O [Citrulline, L-citrulline] | – | support (improve) bacterial biofilm growth | – | activation at 1 % ([1]; read-out: Promote B Biofilm): 10 to 30%; activation at 1 % [2]: 10 to 30%
7 | N[C@@H](CCSC[C@H](N)C(=O)O)C(=O)O [Cystathionine, L-cystathionine] | – | – | – | inhibition at 0.2 % ([1]; disruption, S. aureus, 0.2% amino acid, p<0.001, read-out: Reduce B Biofilm): 10 to 30%
8 | NCC(=O)O [Glycine, L-glycine] | 10 to 30% | support (improve) bacterial biofilm growth | 10 to 30% | –
9 | O=C(O)[C@@H]1C[C@@H](O)CN1 [Hydroxyproline, Trans-4-hydroxy-L-proline] | – | – | – | inhibition at 1 % ([1]; read-out: Reduce B Biofilm): 10 to 30%; Reduce B Biofilm [2, 5]: ● (a single dot [i.e. ●] signifies minor effect (from about 10 to about 30% change)); effect on MRSA biofilms in inhibition and disruption assays [3]: both inhibited and disrupted; anti-biofilm properties against bacterial biofilms [3]: reduction by less than twofold
10 | CC[C@H](C)[C@H](N)C(=O)O [Isoleucine, L-isoleucine] | 10 to 30% | support (improve) bacterial biofilm growth | – | –
11 | CC(C)C[C@H](N)C(=O)O [Leucine, L-leucine] | 10 to 30% | support (improve) bacterial biofilm growth | 10 to 30% | –
12 | NCCCC[C@H](N)C(=O)O [Lysine, L-lysine] | – | support (improve) bacterial biofilm growth | – | activation at 1 % ([1]; read-out: Promote B Biofilm): 10 to 30%; activation at 1 % [2]: 10 to 30%
13 | CSCC[C@H](N)C(=O)O [Methionine, L-methionine] | – | support (improve) bacterial biofilm growth | 10 to 30% | –
14 | NCCC[C@H](N)C(=O)O [Ornithine, L-omithine] | 10 to 30% | support (improve) bacterial biofilm growth | 10 to 30% | –
15 | N[C@@H](Cc1ccccc1)C(=O)O [Phenylalanine, L-phenylalanine] | 10 to 30% | support (improve) bacterial biofilm growth | 10 to 30% | –
16 | NCCOP(=O)(O)O [Phosphoethanolamine, O-phosphoethanolamine] | – | – | – | inhibition at 1 % [1, 4]: 10 to 30%; Reduce B Biofilm [2, 5]: ● (a single dot [i.e. ●] signifies minor effect (from about 10 to about 30% change)); effect on MRSA biofilms in inhibition and disruption assays [3]: both inhibited and disrupted; anti-biofilm properties against bacterial biofilms [3]: reduction by less than twofold
17 | N[C@@H](CO)C(=O)O [Serine, L-serine] | 10 to 30% | support (improve) bacterial biofilm growth | 10 to 30% | –
18 | NCCS(=O)(=O)O [Taurine, L-taurine] | 10 to 30% | support (improve) bacterial biofilm growth | 10 to 30% | –
19 | C[C@@H](O)[C@H](N)C(=O)O [Threonine, L-threonine] | – | support (improve) bacterial biofilm growth | 10 to 30% | –
